Experiments:
Assay type in all cases: in vivo
Bermudagrass = assay: Phytotoxicity via post emergence spray application (Table B2.5)
Method: The phytotoxicity of the compound of formula I to turfgrass species was tested. The compound was applied via post emergence spray to a range of warm and cool season turfgrass species at various rates and spray treatment treatment regimes. Percentage phytotoxicity assessments were taken at various timepoints.

[1] = tested on: Hydrocotyle sp. (dollarweed); assay: Weed control via post emergence spray, in St. Augustinegrass v. Floratam (Table B5.3)
Method: (§1) The weed control efficacy of the compound of formula I was tested. The compound was applied via post emergence spray to a range of weeds, at various rates and spray treatment treatment regimes. Percentage weed control assessments were taken at various timepoints.

[2] = tested on: Trifolium repens (white clover); assay: Weed control via post emergence spray, in St. Augustinegrass v. Floratam (Table B5.4)
Method: as §1

[3] = tested on: Perennial ryegrass v. blend of Bright Star, Citation Fore and Quick Trans; assay: Phytotoxicity of granule formulations with safeners (Table B4.5); conditions: 8 DAT
Method: The phytotoxicity to turfgrass of the compound of formula I in combination with various safeners was tested. The combinations were applied by post emergence spray application. Percentage phytotoxicity assessments were taken at various timepoints. The safeners tested in these trials were cloquintocet-mexyl, cyprosulfamide, a compound of formula 2.3, and isoxadifen-ethyl.
Tables B4.4 and B4.5 present the results of trials using safeners applied in combination with granule formulations of the compound of formula I.

[4] = tested on: Trifolium repens (white clover); assay: Weed control of granule formulations, in St. Augustinegrass V. Delmar (Table B6.1)
Method: Two granule formulations were made and tested. Granule A is an inert granule formulation, comprising 99.06 wt % DG Lite 150 granules, 0.14 wt % compound of formula I, 0.50 wt % Sunspray 6N, and 0.30 wt % HiSil 233. The compound of formula I was added to the DG Lite granules while blending in a Continental Rollo-mixer.
Sunspray 6N oil was then sprayed onto the granules, and HiSil added to dry excess liquid and improve granule flowability. The granules were blended in the mixer for 20-30 minutes until homogeneous, and passed through a −12/+60 mesh to remove over and under sized particles.
Granule B is a fertiliser granule formulation, comprising 54.65 wt % urea, 6.63 wt % triple super phosphate, 4.95 wt % potassion chloride, 9.91 wt % huber clay, 7.22 wt % HiSil 233, 0.16 wt % compound of formula I, […] agnique ME 181, 2.07 wt % stepfac 8180, and 11.98 wt % water. […] The remaining HiSil was added and granules dried at 40-60° C., to remove excess liquid. Finally, the granules were passed through a −12/+60 mesh to remove over and under sized particles.
The weed control efficacy of the compound of formula I was tested. […] All treatments were watered-in 1 day after application. Percentage weed control assessments were taken at various timepoints.

## COCCOCc1nc(C(F)(F)F)ccc1C(=O)C1=C(O)C2CCC(C2)C1=O (stereo not shown) [Formula I, 4-Hydroxy-3-[2-(2-methoxyethoxymethyl)-6-trifluoromethylpyridine-3-carbonyl]-bicyclo[3.2.1]oct-3-en-2-one]
Bermudagrass; 1 appl, 140 g ai/ha, 7 DAT
  % phytotoxicity: 38.75%
Bermudagrass; 1 appl, 140 g ai/ha, 14 DAT
  % phytotoxicity: 18.75%
Bermudagrass; 1 appl, 140 g ai/ha, 21 DAT
  % phytotoxicity: 15.00%
Bermudagrass; 1 appl, 140 g ai/ha, 32 DAT
  % phytotoxicity: 13.75%
Bermudagrass; 1 appl, 140 g ai/ha, 35 DAT
  % phytotoxicity: 13.75%
Bermudagrass; 1 appl, 140 g ai/ha, 42 DAT
  % phytotoxicity: 7.50%
Bermudagrass; 1 appl, 140 g ai/ha, 49 DAT
  % phytotoxicity: 6.25%
Bermudagrass; 1 appl, 280 g ai/ha, 7 DAT
  % phytotoxicity: 38.75%
Bermudagrass; 1 appl, 280 g ai/ha, 14 DAT
  % phytotoxicity: 28.75%
Bermudagrass; 1 appl, 280 g ai/ha, 21 DAT
  % phytotoxicity: 12.50%
Bermudagrass; 1 appl, 280 g ai/ha, 32 DAT
  % phytotoxicity: 15.00%
Bermudagrass; 1 appl, 280 g ai/ha, 35 DAT
  % phytotoxicity: 15.00%
Bermudagrass; 1 appl, 280 g ai/ha, 42 DAT
  % phytotoxicity: 8.75%
Bermudagrass; 1 appl, 280 g ai/ha, 49 DAT
  % phytotoxicity: 6.25%
Bermudagrass; 2 appl, 140 g ai/ha, 7 DAT
  % phytotoxicity: 30.00%
Bermudagrass; 2 appl, 140 g ai/ha, 14 DAT
  % phytotoxicity: 26.25%
Bermudagrass; 2 appl, 140 g ai/ha, 21 DAT
  % phytotoxicity: 15.00%
Bermudagrass; 2 appl, 140 g ai/ha, 32 DAT
  % phytotoxicity: 68.75%
Bermudagrass; 2 appl, 140 g ai/ha, 35 DAT
  % phytotoxicity: 35.00%
Bermudagrass; 2 appl, 140 g ai/ha, 42 DAT
  % phytotoxicity: 15.00%
Bermudagrass; 2 appl, 140 g ai/ha, 49 DAT
  % phytotoxicity: 28.75%
Bermudagrass; 2 appl, 280 g ai/ha, 7 DAT
  % phytotoxicity: 42.50%
Bermudagrass; 2 appl, 280 g ai/ha, 14 DAT
  % phytotoxicity: 36.25%
Bermudagrass; 2 appl, 280 g ai/ha, 21 DAT
  % phytotoxicity: 18.75%
Bermudagrass; 2 appl, 280 g ai/ha, 32 DAT
  % phytotoxicity: 75.00%
Bermudagrass; 2 appl, 280 g ai/ha, 35 DAT
  % phytotoxicity: 65.00%
Bermudagrass; 2 appl, 280 g ai/ha, 42 DAT
  % phytotoxicity: 26.25%
Bermudagrass; 2 appl, 280 g ai/ha, 49 DAT
  % phytotoxicity: 30.00%
[1]; 1 appl, 140 g ai/ha, 5 DAT
  % control: 10.00%
[1]; 1 appl, 140 g ai/ha, 13 DAT
  % control: 60.00%
[1]; 1 appl, 140 g ai/ha, 21 DAT
  % control: 50.00%
[1]; 1 appl, 280 g ai/ha, 5 DAT
  % control: 15.00%
[1]; 1 appl, 280 g ai/ha, 13 DAT
  % control: 57.50%
[1]; 1 appl, 280 g ai/ha, 21 DAT
  % control: 60.00%
[1]; 2 appl, 140 g ai/ha, 5 DAT
  % control: 15.00%
[1]; 2 appl, 140 g ai/ha, 13 DAT
  % control: 55.00%
[1]; 2 appl, 140 g ai/ha, 21 DAT
  % control: 52.50%
[1]; 2 appl, 280 g ai/ha, 5 DAT
  % control: 20.00%
[1]; 2 appl, 280 g ai/ha, 13 DAT
  % control: 65.00%
[1]; 2 appl, 280 g ai/ha, 21 DAT
  % control: 62.50%
[2]; 1 appl, 140 g ai/ha, 5 DAT
  % control: 21.67%
[2]; 1 appl, 140 g ai/ha, 13 DAT
  % control: 86.67%
[2]; 1 appl, 140 g ai/ha, 21 DAT
  % control: 85.00%
[2]; 1 appl, 140 g ai/ha, 27 DAT
  % control: 88.33%
[2]; 1 appl, 140 g ai/ha, 35 DAT
  % control: 78.33%
[2]; 1 appl, 140 g ai/ha, 42 DAT
  % control: 76.67%
[2]; 1 appl, 140 g ai/ha, 61 DAT
  % control: 76.67%
[2]; 1 appl, 280 g ai/ha, 5 DAT
  % control: 25.00%
[2]; 1 appl, 280 g ai/ha, 13 DAT
  % control: 91.67%
[2]; 1 appl, 280 g ai/ha, 21 DAT
  % control: 90.00%
[2]; 1 appl, 280 g ai/ha, 27 DAT
  % control: 93.33%
[2]; 1 appl, 280 g ai/ha, 35 DAT
  % control: 91.67%
[2]; 1 appl, 280 g ai/ha, 42 DAT
  % control: 90.00%
[2]; 1 appl, 280 g ai/ha, 61 DAT
  % control: 90.00%
[2]; 2 appl, 140 g ai/ha, 5 DAT
  % control: 25.00%
[2]; 2 appl, 140 g ai/ha, 13 DAT
  % control: 88.33%
[2]; 2 appl, 140 g ai/ha, 21 DAT
  % control: 86.67%
[2]; 2 appl, 140 g ai/ha, 27 DAT
  % control: 91.67%
[2]; 2 appl, 140 g ai/ha, 35 DAT
  % control: 96.00%
[2]; 2 appl, 140 g ai/ha, 42 DAT
  % control: 96.67%
[2]; 2 appl, 140 g ai/ha, 61 DAT
  % control: 100.00%
[2]; 2 appl, 280 g ai/ha, 5 DAT
  % control: 26.67%
[2]; 2 appl, 280 g ai/ha, 13 DAT
  % control: 95.00%
[2]; 2 appl, 280 g ai/ha, 21 DAT
  % control: 93.33%
[2]; 2 appl, 280 g ai/ha, 27 DAT
  % control: 95.00%
[2]; 2 appl, 280 g ai/ha, 35 DAT
  % control: 99.33%
[2]; 2 appl, 280 g ai/ha, 42 DAT
  % control: 100.00%
[2]; 2 appl, 280 g ai/ha, 61 DAT
  % control: 100.00%
[3]; DG Lite granule, no safener, 520 g ai/ha
  % phytotoxicity: 18.8%
[3]; DG Lite granule, safener Cyprosulfamide (0.07%), 520 g ai/ha
  % phytotoxicity: 21.3%
[3]; DG Lite granule, safener Formula 2.3 (0.07%), 520 g ai/ha
  % phytotoxicity: 20.0%
[3]; DG Lite granule, safener Isoxadifen (0.07%), 520 g ai/ha
  % phytotoxicity: 21.3%
[3]; Spray, no safener, 260 g ai/ha
  % phytotoxicity: 31.3%
[4]; Granule A (inert), 112 g ai/ha, 7 DAT
  % control: 46.70%
[4]; Granule A (inert), 112 g ai/ha, 11 DAT
  % control: 63.30%
[4]; Granule A (inert), 112 g ai/ha, 15 DAT
  % control: 66.70%
[4]; Granule A (inert), 112 g ai/ha, 20 DAT
  % control: 63.30%
[4]; Granule A (inert), 112 g ai/ha, 28 DAT
  % control: 50.00%
[4]; Granule A (inert), 280 g ai/ha, 7 DAT
  % control: 56.70%
[4]; Granule A (inert), 280 g ai/ha, 11 DAT
  % control: 76.70%
[4]; Granule A (inert), 280 g ai/ha, 15 DAT
  % control: 78.30%
[4]; Granule A (inert), 280 g ai/ha, 20 DAT
  % control: 70.00%
[4]; Granule A (inert), 280 g ai/ha, 28 DAT
  % control: 51.70%
[4]; Granule B (fertiliser), 112 g ai/ha, 7 DAT
  % control: 53.30%
[4]; Granule B (fertiliser), 112 g ai/ha, 11 DAT
  % control: 70.00%
[4]; Granule B (fertiliser), 112 g ai/ha, 15 DAT
  % control: 76.70%
[4]; Granule B (fertiliser), 112 g ai/ha, 20 DAT
  % control: 75.00%
[4]; Granule B (fertiliser), 112 g ai/ha, 28 DAT
  % control: 70.00%
[4]; Granule B (fertiliser), 280 g ai/ha, 7 DAT
  % control: 66.70%
[4]; Granule B (fertiliser), 280 g ai/ha, 11 DAT
  % control: 80.00%
[4]; Granule B (fertiliser), 280 g ai/ha, 15 DAT
  % control: 85.00%
[4]; Granule B (fertiliser), 280 g ai/ha, 20 DAT
  % control: 88.30%
[4]; Granule B (fertiliser), 280 g ai/ha, 28 DAT
  % control: 81.70%
[4]; Spray, 112 g ai/ha, 7 DAT
  % control: 63.30%
[4]; Spray, 112 g ai/ha, 11 DAT
  % control: 78.30%
[4]; Spray, 112 g ai/ha, 15 DAT
  % control: 81.70%
[4]; Spray, 112 g ai/ha, 20 DAT
  % control: 76.70%
[4]; Spray, 112 g ai/ha, 28 DAT
  % control: 76.70%
[4]; Spray, 280 g ai/ha, 7 DAT
  % control: 71.70%
[4]; Spray, 280 g ai/ha, 11 DAT
  % control: 86.70%
[4]; Spray, 280 g ai/ha, 15 DAT
  % control: 90.00%
[4]; Spray, 280 g ai/ha, 20 DAT
  % control: 91.70%
[4]; Spray, 280 g ai/ha, 28 DAT
  % control: 76.70%

Source: US20100184596A1, “METHOD FOR THE CONTROL OF WEEDS IN TURF” (SYNGENTA CROP PROTECTION, INC., priority 2007, published 2010)
